# According to ChEMBL document CHEMBL4610075, “Isolation, Absolute Configuration, and Biological Activities of Chebulic Acid and Brevifolincarboxylic Acid Derivatives from Euphorbia hirta” (J Nat Prod, 2020):
# Test system: BV-2
# Test: Antineuroinflammatory activity in mouse BV2 cells assessed as inhibition of LPS-induced NO production incubated for 24 hrs by Griess assay
# Type: functional, cell-based
# Conditions: BV-2, 24 h
row,IC50,Structure (SMILES)
1,30.5 µM,CCOC(=O)[C@H]1CC(=O)c2oc(=O)c3cc(O)c(O)c(O)c3c21
2,27 µM,O=C1CCc2c1oc(=O)c1cc(O)c(O)c(O)c21
3,18.5 µM,CN(C)c1ccc(O)c2c1C[C@H]1C[C@H]3[C@H](N(C)C)C(O)=C(C(N)=O)C(=O)[C@@]3(O)C(O)=C1C2=O [MINOCYCLINE]

row,Structure (SMILES),IC50
1,CCOC(=O)Cc1c2c3c(cc(O)c(O)c3oc1=O)C(=O)C2(O)C(=O)OCC (racemic),31.5 µM

# Test system: not listed separately
# Test: Antioxidant activity assessed as DPPH radical scavenging activity after 30 mins
# Type: functional
# Conditions: not given
row,Structure (SMILES),EC50
1,O=C1C[C@H](C(=O)O)c2c1oc(=O)c1cc(O)c(O)c(O)c21,3 µM
2,COC(=O)[C@H]1CC(=O)c2oc(=O)c3cc(O)c(O)c(O)c3c21,6 µM
3,O=C(O)Cc1c2c3c(cc(O)c(O)c3oc1=O)C(=O)OC2,4.7 µM
4,CCOC(=O)[C@H]1CC(=O)c2oc(=O)c3cc(O)c(O)c(O)c3c21,6.7 µM
5,COC(=O)Cc1c2c3c(cc(O)c(O)c3oc1=O)C(=O)OC2,8 µM
6,CCOC(=O)[C@H]1CC(=O)c2c1c1c(O)c(O)c(O)cc1c(=O)n2CCCC(=O)OC,6.7 µM
7,CCOC(=O)Cc1c2c3c(cc(O)c(O)c3oc1=O)C(=O)OC2,2.2 µM
8,O=C1CCc2c1oc(=O)c1cc(O)c(O)c(O)c21,7.6 µM
9,CCOC(=O)C1(OCC)CC(=O)c2oc(=O)c3cc(O)c(O)c(O)c3c21 (racemic),4 µM
10,COC(=O)C1OC(=O)c2cc(O)c(O)c3oc(=O)c(CC(=O)O)c1c23 (racemic),7.7 µM
11,CCOC(=O)Cc1c2c3c(cc(O)c(O)c3oc1=O)C(=O)C2(O)C(=O)OCC (racemic),5.3 µM
12,CCOC(=O)Cc1c2c3c(cc(O)c(O)c3oc1=O)C(=O)OC2C(=O)OC (racemic),6.5 µM
13,O=C1O[C@H]([C@@H](O)CO)C(O)=C1O [ASCORBIC ACID],9.2 µM

# Continued, values first:
row,EC50,Structure (SMILES)
1,8.1 µM,CCOC(=O)/C=C(/C(=O)O)[C@H]1c2c(cc(O)c(O)c2O)C(=O)O[C@@H]1C(=O)OCC
2,8.1 µM,CCOC(=O)[C@H]1OC(=O)c2cc(O)c(O)c(O)c2[C@@H]1[C@@H](CC(=O)O)C(=O)OCC
3,4.4 µM,CCOC(=O)/C=C(/C(=O)OCC)[C@H]1c2c(cc(O)c(O)c2O)C(=O)O[C@@H]1C(=O)OC
4,6.8 µM,CCOC(=O)C[C@@H](C(=O)OCC)[C@H]1c2c(cc(O)c(O)c2O)C(=O)O[C@@H]1C(=O)OCC
5,6 µM,CCOC(=O)/C=C(/C(=O)OC)[C@H]1c2c(cc(O)c(O)c2O)C(=O)O[C@@H]1C(=O)OCC
6,2.2 µM,CCOC(=O)/C=C(/C(=O)OCC)[C@H]1c2c(cc(O)c(O)c2O)C(=O)O[C@@H]1C(=O)OCC
7,5.4 µM,CCOC(=O)/C=C(/C(=O)OCC)[C@H]1c2c(cc(O)c(O)c2O)C(=O)O[C@@H]1C(=O)O
8,15.8 µM,CCOC(=O)C[C@@H](C(=O)O)[C@H]1c2c(cc(O)c(O)c2O)C(=O)O[C@@H]1C(=O)OCC
9,10.8 µM,CCOC(=O)/C(=C/C(=O)O)[C@H]1c2c(cc(O)c(O)c2O)C(=O)O[C@@H]1C(=O)OCC
10,4.2 µM,CCOC(=O)Cc1c2c3c(cc(O)c(O)c3oc1=O)C(=O)OC2C(=O)OCC (racemic)
11,9.9 µM,CCOC(=O)C1OC(=O)c2cc(O)c(O)c3oc(=O)c(CC(=O)O)c1c23 (racemic)
